Measured values published in ChEMBL document CHEMBL1142931, “Vascular disrupting agents” (Bioorg Med Chem, 2007).

Organism: Homo sapiens
Assay: Half life in human assessed as ZD-6126-phenol
Type: ADME, organism-based
Details: in vivo

SMILES: COc1cc2c(c(OC)c1OC)-c1ccc(OP(=O)(O)O)cc1[C@@H](NC(C)=O)CC2 [ZD-6126]
- t1/2: 2 h
